The source of these data is patent US11872262B2, “Means and methods for treating bacterial infections” (VIB VZW, priority 2017, dated 2024).

Residues, ends and D or L forms follow the SMILES beside them.

The assay relates to E. coli O157:H7. It is filed as cell-based, Escherichia coli. As to conditions: screening-stage peptides tested at 1, 6, 12 and 25 μg/mL. The text has this:
In the present invention we used the statistical thermodynamics algorithm TANGO to identify aggregation prone regions (APR) in the proteome of E. coli strain O157:H7. This yielded 3535 sequences of at least 6 amino acids in length and a TANGO score of at least 20%. In order to generate efficient aggregation seeds, we employed a previously devised tandem repeat design ^19, 21, in which the APRs are repeated once and separated by a linker. Given the length limitation on solid phase peptide synthesis with regard to yield and purity, we focused on the 1542 APRs with a length of 7 amino acids. In order to maximize the potential of these peptides to induce aggregation in E. coli, we ranked the APRs by their frequency of occurrence throughout the E. coli proteome, allowing a single amino acid mismatch, and selected the first 75 most frequently occurring sequences from this list (Table 4). In the design pattern, and in order to increase the colloidal stability of these aggregating peptides, the APRs are flanked by aggregation gatekeepers, a class of residues that was previously shown to reduce aggregation kinetics^22-24. […] To generate the tandem we used a single proline residue as a linker between the gatekeeper-flanked APRs. In addition to the 75 peptides generated in this fashion, we added 2 variants of each of the first 25 peptides in the list by randomly mutating one residue in the first APR repeat to arginine to further modulate the aggregation propensity of the peptides (Table 4). All the peptides were generated using solid phase synthesis at 200 nmole scale and dissolved in DMSO to a theoretical stock concentration of 2 mM (assuming 100% synthesis efficiency). Peptide activity on the growth of E. coli O157:H7 was measured at dilutions of the peptide corresponding to concentrations of 1, 6, 12 and 25 μg/mL. […] The Matthews Correlations Coefficient (MCC) with the measured activity was 0.1 at 12 μg/mL and 0.24 at 25 μg/mL.
`CC(C)C[C@H](NC(=O)[C@H](C)NC(=O)[C@H](CC(C)C)NC(=O)[C@H](CCCNC(=N)N)NC(=O)[C@@H]1CCCN1C(=O)[C@H](CCCNC(=N)N)NC(=O)[C@H](CCCNC(=N)N)NC(=O)[C@H](CC(C)C)NC(=O)[C@H](CC(C)C)NC(=O)[C@H](CC(C)C)NC(=O)[C@H](C)NC(=O)[C@H](CC(C)C)NC(=O)[C@H](C)NC(=O)[C@H](CC(C)C)NC(=O)[C@@H](N)CCCNC(=N)N)C(=O)N[C@@H](C)C(=O)N[C@@H](CC(C)C)C(=O)N[C@@H](CC(C)C)C(=O)N[C@@H](CC(C)C)C(=O)N[C@@H](CCCNC(=N)N)C(=O)N[C@@H](CCCNC(=N)N)C(=O)O` [Peptide P4] (H-RLALALLLRRPRLALALLLRR-OH; N-terminus and C-terminus assumed): the “E. coli O157 (apparent MIC in screen)” value stood at 6 µg/mL.
As for `CC(C)C[C@H](NC(=O)CNC(=O)[C@H](CCCNC(=N)N)NC(=O)[C@@H]1CCCN1C(=O)[C@H](CCCNC(=N)N)NC(=O)[C@H](CCCNC(=N)N)NC(=O)[C@H](C)NC(=O)[C@H](CCCNC(=N)N)NC(=O)[C@H](CC(C)C)NC(=O)[C@H](C)NC(=O)[C@H](CC(C)C)NC(=O)[C@H](CC(C)C)NC(=O)CNC(=O)[C@@H](N)CCCNC(=N)N)C(=O)N[C@@H](CC(C)C)C(=O)N[C@@H](C)C(=O)N[C@@H](CC(C)C)C(=O)N[C@@H](CC(C)C)C(=O)N[C@@H](C)C(=O)N[C@@H](CCCNC(=N)N)C(=O)N[C@@H](CCCNC(=N)N)C(=O)O` [Peptide P114] (H-RGLLALRARRPRGLLALLARR-OH; N-terminus and C-terminus assumed), the “E. coli O157 (apparent MIC in screen)” value amounted to 25 µg/mL.
Turning to `CC(C)C[C@H](NC(=O)CNC(=O)[C@H](CCCNC(=N)N)NC(=O)[C@@H]1CCCN1C(=O)[C@H](CCCNC(=N)N)NC(=O)[C@H](CCCNC(=N)N)NC(=O)[C@H](CCC(N)=O)NC(=O)[C@H](CC(C)C)NC(=O)[C@H](C)NC(=O)[C@H](CC(C)C)NC(=O)[C@H](CCCNC(=N)N)NC(=O)[C@H](CC(C)C)NC(=O)CNC(=O)[C@@H](N)CCCNC(=N)N)C(=O)N[C@@H](CC(C)C)C(=O)N[C@@H](CC(C)C)C(=O)N[C@@H](C)C(=O)N[C@@H](CC(C)C)C(=O)N[C@@H](CCC(N)=O)C(=O)N[C@@H](CCCNC(=N)N)C(=O)N[C@@H](CCCNC(=N)N)C(=O)O` [Peptide P99] (H-RGLRLALQRRPRGLLLALQRR-OH; N-terminus and C-terminus assumed), the “E. coli O157 (apparent MIC in screen)” value worked out at 25 µg/mL.
As to `CC[C@H](C)[C@H](NC(=O)[C@H](CC(C)C)NC(=O)[C@H](CC(C)C)NC(=O)[C@H](C)NC(=O)[C@H](CCCNC(=N)N)NC(=O)[C@@H]1CCCN1C(=O)[C@H](CCCNC(=N)N)NC(=O)[C@H](CCCNC(=N)N)NC(=O)[C@H](CC(C)C)NC(=O)[C@H](CC(C)C)NC(=O)[C@@H](NC(=O)[C@@H](NC(=O)[C@H](CC(C)C)NC(=O)[C@H](CC(C)C)NC(=O)[C@H](C)NC(=O)[C@@H](N)CCCNC(=N)N)[C@@H](C)CC)[C@@H](C)O)C(=O)N[C@H](C(=O)N[C@@H](CC(C)C)C(=O)N[C@@H](CC(C)C)C(=O)N[C@@H](CCCNC(=N)N)C(=O)N[C@@H](CCCNC(=N)N)C(=O)O)[C@@H](C)O` [Peptide P23] (H-RALLITLLRRPRALLITLLRR-OH; N-terminus and C-terminus assumed), the “E. coli O157 (apparent MIC in screen)” value came out at 25 µg/mL.
In the case of `CC(C)C[C@H](NC(=O)CNC(=O)[C@@H](NC(=O)[C@H](Cc1ccccc1)NC(=O)[C@H](CC(C)C)NC(=O)[C@H](CCCNC(=N)N)NC(=O)[C@@H]1CCCN1C(=O)[C@H](CCCNC(=N)N)NC(=O)[C@H](CCCNC(=N)N)NC(=O)[C@H](CC(C)C)NC(=O)[C@H](C)NC(=O)[C@H](CC(C)C)NC(=O)CNC(=O)[C@@H](NC(=O)[C@H](Cc1ccccc1)NC(=O)[C@H](CC(C)C)NC(=O)[C@@H](N)CCCNC(=N)N)C(C)C)C(C)C)C(=O)N[C@@H](C)C(=O)N[C@@H](CC(C)C)C(=O)N[C@@H](CCCNC(=N)N)C(=O)N[C@@H](CCCNC(=N)N)C(=O)O` [Peptide P26] (H-RLFVGLALRRPRLFVGLALRR-OH; N-terminus and C-terminus assumed), the “E. coli O157 (apparent MIC in screen)” value was 25 µg/mL.
On to `CC(C)C[C@H](NC(=O)[C@H](C)NC(=O)[C@H](CCCNC(=N)N)NC(=O)[C@@H]1CCCN1C(=O)[C@H](CCCNC(=N)N)NC(=O)[C@H](CCCNC(=N)N)NC(=O)[C@H](CC(C)C)NC(=O)[C@H](CC(C)C)NC(=O)[C@@H](NC(=O)[C@@H](NC(=O)[C@H](CCCNC(=N)N)NC(=O)[C@H](CC(C)C)NC(=O)[C@H](C)NC(=O)[C@@H](N)CCCNC(=N)N)[C@@H](C)O)[C@@H](C)O)C(=O)N[C@@H](CC(C)C)C(=O)N[C@H](C(=O)N[C@H](C(=O)N[C@@H](CC(C)C)C(=O)N[C@@H](CC(C)C)C(=O)N[C@@H](CCCNC(=N)N)C(=O)N[C@@H](CCCNC(=N)N)C(=O)O)[C@@H](C)O)[C@@H](C)O` [Peptide P80] (H-RALRTTLLRRPRALLTTLLRR-OH; N-terminus and C-terminus assumed), for which the “E. coli O157 (apparent MIC in screen)” value was 25 µg/mL.
Under `CC(C)C[C@H](NC(=O)[C@H](C)NC(=O)[C@H](CC(C)C)NC(=O)[C@H](CC(C)C)NC(=O)[C@H](CC(C)C)NC(=O)[C@H](CCCNC(=N)N)NC(=O)[C@@H]1CCCN1C(=O)[C@H](CCCNC(=N)N)NC(=O)[C@H](CCCNC(=N)N)NC(=O)[C@H](CO)NC(=O)[C@H](CCCNC(=N)N)NC(=O)[C@H](CC(C)C)NC(=O)[C@H](C)NC(=O)[C@H](CC(C)C)NC(=O)[C@H](CC(C)C)NC(=O)[C@H](CC(C)C)NC(=O)[C@@H](N)CCCNC(=N)N)C(=O)N[C@@H](CC(C)C)C(=O)N[C@@H](CO)C(=O)N[C@@H](CCCNC(=N)N)C(=O)N[C@@H](CCCNC(=N)N)C(=O)O` [Peptide P103] (H-RLLLALRSRRPRLLLALLSRR-OH; N-terminus and C-terminus assumed) stands 25 µg/mL; under `CC(C)C[C@H](NC(=O)[C@H](CC(C)C)NC(=O)[C@H](CC(C)C)NC(=O)[C@H](CCCNC(=N)N)NC(=O)[C@@H]1CCCN1C(=O)[C@H](CCCNC(=N)N)NC(=O)[C@H](CCCNC(=N)N)NC(=O)[C@@H](NC(=O)[C@H](CC(C)C)NC(=O)[C@H](CC(C)C)NC(=O)[C@H](CO)NC(=O)[C@H](CCCNC(=N)N)NC(=O)[C@H](CC(C)C)NC(=O)[C@H](CC(C)C)NC(=O)[C@@H](N)CCCNC(=N)N)C(C)C)C(=O)N[C@@H](CO)C(=O)N[C@@H](CC(C)C)C(=O)N[C@@H](CC(C)C)C(=O)N[C@H](C(=O)N[C@@H](CCCNC(=N)N)C(=O)N[C@@H](CCCNC(=N)N)C(=O)O)C(C)C` [Peptide P101] (H-RLLRSLLVRRPRLLLSLLVRR-OH; N-terminus and C-terminus assumed), 12 µg/mL.
As for `CC(C)C[C@H](NC(=O)[C@H](C)NC(=O)[C@H](CC(C)C)NC(=O)[C@@H](NC(=O)[C@H](C)NC(=O)[C@H](CO)NC(=O)[C@H](CCCNC(=N)N)NC(=O)[C@@H]1CCCN1C(=O)[C@H](CCCNC(=N)N)NC(=O)[C@H](CCCNC(=N)N)NC(=O)[C@H](CC(C)C)NC(=O)[C@H](CC(C)C)NC(=O)[C@H](C)NC(=O)[C@H](CC(C)C)NC(=O)[C@@H](NC(=O)[C@H](C)NC(=O)[C@H](CO)NC(=O)[C@@H](N)CCCNC(=N)N)C(C)C)C(C)C)C(=O)N[C@@H](CC(C)C)C(=O)N[C@@H](CCCNC(=N)N)C(=O)N[C@@H](CCCNC(=N)N)C(=O)O` [Peptide P18] (H-RSAVLALLRRPRSAVLALLRR-OH; N-terminus and C-terminus assumed), the “E. coli O157 (apparent MIC in screen)” value was found to be 12 µg/mL.
